{"source": "patent US20040242870A1", "about": "“Antiviral methods and compounds” (priority 2000, published 2004)", "key": {"HeLa CD4 LTR β-gal cells": {"tested_on": "HeLa CD4 LTR β-gal cells", "experiment": "Compound toxicity in attachment assay (MTS dye reduction, sister plates)", "type": "cell-based", "conditions": "read-out: TC50 (the source's name)", "description": "At assay termination the assay plates were stained with the soluble tetrazolium-based dye MTS (CellTiter96® Reagent Promega) to determine cell viability and quantify compound toxicity. MTS is metabolized by the mitochondria enzymes of metabolically active cells to a soluble formazan product, allowing the rapid quantitative analysis cell viability and compound cytotoxicity. […] At termination of the assay 20 μL of MTS reagent was added per well and incubated for 4 h at 37° C. Adhesive plate sealers were used in place of the lids, the sealed plate was inverted several times to mix the soluble formazan product and the plate was read spectrophotometrically at 490 nm with a Molecular Devices Vmax plate reader.\nThe attachment assay was performed with the HeLa CD4 LTR , β-gal cells available from the AIDS Research and Reference Reagent Repository. […] HeLa CD4 LTR β-gal cells express cell surface CD4 and contain an LTR β-galactosidase reporter construct. Upon infection either the Tat protein incorporated into the virion or new Tat produced following virus integration and transcription trans-activates the LTR β-gal reporter, leading to expression of the β-galactosidase enzyme. HeLa CD4 LTR β-gal cells are routinely cultured with the required selection antibiotics and screened for mycoplasma contamination. Twenty-four h prior to initiation of the assay cells were trypsinized, counted and 1×10^4 cells placed in a 0.2 cm well in media without selection antibiotics. Media was removed at 24 h and compound in media placed on the cells and incubated for 15 to 30 min at 37° C. A known titer of virus was then added to the wells and the incubation continued for 1 h. At the end of the incubation the wells were washed 6 times with media and the culture continued for 48 h. At 48 h the wells were washed one time with PBS and β-galactosidase enzyme expression determined by chemiluminescence per manufacturers instructions (Tropix Gal-screen™, Tropix, Bedford, Mass.). Compound toxicity was monitored on sister plates using MTS dye reduction."}, "HIV-1": {"tested_on": "HIV-1", "experiment": "HeLa CD4 LTR β-gal/HL2/3 HIV-1 fusion assay", "type": "cell-based", "conditions": "fusion assay", "source_text": "This assay uses the HeLa CD4 LTR β-gal and HL2-3 cells available from the AIDS Research and Reference Reagent Repository. The HL2/3 are derived from HeLa cells and engineered to express HIV gp120 on their cell surface and Tat protein in their cytoplasma. Thus following gp 120/CD4/coreceptor-mediated fusion; cytoplasmic mixing results in the HL2/3 cell-derived Tat trans-activation of the β-galactosidase reporter. […] Twenty-four h prior to initiation of the assay cells were trypsinized, counted and 5×10^3 cells placed in a 0.2 cm well in media without selection antibiotics. To initiate the fusion assay HeLa CD4 LTR β-gal (5×10^3 cells per 0.2 cm well) were incubated with compound for 1 h at 37° C. HL2/3 cells (5×10^3) were added to the 0.2 cm well and the incubation continued for 48 h. At 48 h the wells were washed 1 time with PBS and β-galactosidase enzyme expression determined by chemiluminescence per manufacturers instructions (Tropix Gal-screen™, Tropix, Bedford, Mass.). Compound toxicity was monitored on sister plates using MTS dye reduction."}}, "note": "Where two headings read alike, the source gives them in different places.", "data": [{"smiles": "CC(C)=CCCC1(C)CCc2c(O)cc(C(C)(C)CCCC(C)C)cc2O1", "note": "(stereo not shown) [IG-08, 3,4-Dihydro-2-methyl-2-(4-methyl-3-pentenyl)-7-(1,1,5-trimethylhexyl)-2H-1-benzopyran-5-ol]", "values": [{"measurement": "CC50", "setting": "HeLa CD4 LTR β-gal cells; Experiment 1, pretreat 0 h", "value": "> 50", "unit": "µM"}, {"measurement": "CC50", "setting": "HeLa CD4 LTR β-gal cells; Experiment 1, pretreat 4 h", "value": "> 50", "unit": "µM"}, {"measurement": "CC50", "setting": "HeLa CD4 LTR β-gal cells; Experiment 1, pretreat 24 h", "value": "> 50", "unit": "µM"}, {"measurement": "CC50", "setting": "HeLa CD4 LTR β-gal cells; Experiment 2, pretreat 0 h", "value": "> 50", "unit": "µM"}, {"measurement": "CC50", "setting": "HeLa CD4 LTR β-gal cells; Experiment 2, pretreat 4 h", "value": 29, "unit": "µM"}, {"measurement": "CC50", "setting": "HeLa CD4 LTR β-gal cells; Experiment 2, pretreat 24 h", "value": 12.2, "unit": "µM"}]}, {"smiles": "C=C(C)[C@@H]1CCC(C)=C[C@H]1c1c(O)cc(CCCCC)cc1O", "note": "[Cannabidiol, reference compound]", "values": [{"measurement": "Comments: suppression of β-galactosidase activity", "setting": "HIV-1", "value": "Suppression of β-galactosidase"}]}]}
